Measured values taken from PMC12851022, “Targeting the Spliceosomal Protein USP39 Through Allosteric Ligands and PROTAC‐Induced Degradation” (Angewandte Chemie (International Ed. in English), 2025).

What was measured:
[1] = molecular target: T1, USP39-OFP (Homo sapiens, UniProt Q53GS9); assay: In-cell fluorescence degradation assay in HeLa-USP39-OFP cells; type: cell-based; conditions: 50 nM, 16-h serum starvation, 24-h treatment
T1 construct: expressed in transfected cells; host or cells: HeLa
T1 sequence (P40337 whole entry, one chain of several, further chain): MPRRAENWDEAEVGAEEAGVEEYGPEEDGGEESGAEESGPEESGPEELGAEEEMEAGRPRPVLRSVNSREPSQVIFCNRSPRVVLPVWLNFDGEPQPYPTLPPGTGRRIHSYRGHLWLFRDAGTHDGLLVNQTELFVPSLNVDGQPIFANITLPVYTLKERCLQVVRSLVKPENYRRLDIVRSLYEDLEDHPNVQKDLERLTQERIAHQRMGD
T1 sequence (Q15370 whole entry partner, one chain of several): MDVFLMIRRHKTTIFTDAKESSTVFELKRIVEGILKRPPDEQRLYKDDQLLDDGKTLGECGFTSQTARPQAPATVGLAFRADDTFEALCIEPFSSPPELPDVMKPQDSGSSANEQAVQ
T1 sequence (Q15369 whole entry partner, one chain of several): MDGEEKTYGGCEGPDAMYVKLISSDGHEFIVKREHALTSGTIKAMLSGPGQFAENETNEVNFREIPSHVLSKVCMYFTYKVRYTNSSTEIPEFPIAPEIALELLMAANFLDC
Procedure: To evaluate the degradation efficacy of USP39_PROTACs, we adapted our recently developed cellular fluorescence assay in HeLa cells transiently overexpressing USP39‐OFP (HeLa‐USP39‐OFP).^[ [32] ^] Various experimental conditions were tested, including different initial seeding densities, the presence or absence of serum starvation, varying treatment durations, and compound concentration gradients (Figure 4a). Among these, a 16‐h serum starvation followed by a 24‐h treatment provided the most consistent and reproducible degradation of USP39 and was used for further experiments. Under these experimental conditions, a series of CRBN‐ and VHL‐based PROTACs were evaluated in an in‐cell fluorescence assay at a concentration of 50 nM to assess their ability to induce target protein degradation (Figure 4b, Table SI4). […]
Figure 4 Effective and selective degradation of USP39 in cells by USP39‐PROTACs. a) Optimization of cellular degradation assay in HeLa cells transiently overexpressing USP39‑OFP (HeLa‐USP39‐OFP). […] Western blot comparing USP39 levels in VHL WT and VHL KO HeLa cells treated with USP39_PROTAC_V1. k) Fluorescence assay in HEK293T cells co‐expressing USP39‑OFP and either VHL_WT‑EGFP or VHL_m (Δ91–121). […]

[2] = molecular target: T2, USP39 / VHL_m ternary complex (Homo sapiens, UniProt P40337+Q53GS9, DEL91-121); assay: FRET assay of ternary complex formation in cells, VHL_m; type: cell-based; conditions: in the presence of MLN4924
T2 construct: expressed in transfected cells; host or cells: HEK293T
T2 sequence (P40337 with tags, fused parts or gaps DEL91-121, one chain of several): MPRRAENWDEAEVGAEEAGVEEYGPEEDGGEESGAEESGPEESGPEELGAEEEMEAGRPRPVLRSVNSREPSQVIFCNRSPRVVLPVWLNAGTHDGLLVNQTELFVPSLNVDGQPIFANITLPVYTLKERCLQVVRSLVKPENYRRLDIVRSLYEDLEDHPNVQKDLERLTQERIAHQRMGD
Procedure: (§1) Figure 4 Effective and selective degradation of USP39 in cells by USP39‐PROTACs. a) Optimization of cellular degradation assay in HeLa cells transiently overexpressing USP39‑OFP (HeLa‐USP39‐OFP). […] GAPDH was used as a loading control. g) Proteasome dependence of USP39 degradation. HeLa‐WT cells were co‐treated with MG132 (0.25 µM) or DMSO control and USP39_PROTAC_V1 for 24 h ST. h) Representative immunofluorescence images of HeLa‐USP39_OFP cells treated with DMSO (NT), USP39_PROTAC_V1 (10 nM, 24 h), or USP39_PROTAC_V1 + MLN4924 (1 µM), stained for USP39 (red) and nuclei (blue). i) Quantification of USP39 degradation by fluorescence microscopy, showing DC50 values of 13 nM without MLN4924 (orange) and 204 nM with MLN4924 (blue) (MLN4924 = 5 uM). j) VHL‐dependence of PROTAC‐induced degradation. Schematic of PROTAC recruitment to VHL via hydroxyl‐proline interactions (His115, Ser111). Western blot comparing USP39 levels in VHL WT and VHL KO HeLa cells treated with USP39_PROTAC_V1. k) Fluorescence assay in HEK293T cells co‐expressing USP39‑OFP and either VHL_WT‑EGFP or VHL_m (Δ91–121). […] Comparison of untreated (NT) and USP39_PROTAC_V1–treated (10 nM, 24 h) samples. Percent spliced/unspliced (S/U) ratios are shown, reflecting USP39‐deficiency–associated splicing defects. Data represent at least four independent biological replicates. […]

[3] = test system: HeLa-WT proteome; assay: Proteome-wide LC-MS/MS and western blot selectivity analysis in HeLa-WT cells; type: cell-based, human
Procedure: Figure 4 Effective and selective degradation of USP39 in cells by USP39‐PROTACs. a) Optimization of cellular degradation assay in HeLa cells transiently overexpressing USP39‑OFP (HeLa‐USP39‐OFP). […] GAPDH was used as a loading control. g) Proteasome dependence of USP39 degradation. HeLa‐WT cells were co‐treated with MG132 (0.25 µM) or DMSO control and USP39_PROTAC_V1 for 24 h ST. h) Representative immunofluorescence images of HeLa‐USP39_OFP cells treated with DMSO (NT), USP39_PROTAC_V1 (10 nM, 24 h), or USP39_PROTAC_V1 + MLN4924 (1 µM), stained for USP39 (red) and nuclei (blue). i) Quantification of USP39 degradation by fluorescence microscopy, showing DC50 values of 13 nM without MLN4924 (orange) and 204 nM with MLN4924 (blue) (MLN4924 = 5 uM). j) VHL‐dependence of PROTAC‐induced degradation. Schematic of PROTAC recruitment to VHL via hydroxyl‐proline interactions (His115, Ser111). Western blot comparing USP39 levels in VHL WT and VHL KO HeLa cells treated with USP39_PROTAC_V1. k) Fluorescence assay in HEK293T cells co‐expressing USP39‑OFP and either VHL_WT‑EGFP or VHL_m (Δ91–121). […] Comparison of untreated (NT) and USP39_PROTAC_V1–treated (10 nM, 24 h) samples. Percent spliced/unspliced (S/U) ratios are shown, reflecting USP39‐deficiency–associated splicing defects. Data represent at least four independent biological replicates.
To assess the selectivity of USP39 degradation, a proteome‐wide analysis was conducted using LC‐MS/MS based proteomics. […] These finding were further validated by western blot (WB) analysis, which confirmed consistent downregulation of USP39, ISG15, and NDRG1.

[4] = molecular target: T3, USP39 (Homo sapiens, UniProt Q53GS9); assay: Western blot of USP39 levels in HeLa-WT cells; type: cell-based; set-up: endogenous in cells; host or cells: HeLa-WT; conditions: MG132 0.25 µM, 24 h ST
T3 sequence (Q53GS9 1-565): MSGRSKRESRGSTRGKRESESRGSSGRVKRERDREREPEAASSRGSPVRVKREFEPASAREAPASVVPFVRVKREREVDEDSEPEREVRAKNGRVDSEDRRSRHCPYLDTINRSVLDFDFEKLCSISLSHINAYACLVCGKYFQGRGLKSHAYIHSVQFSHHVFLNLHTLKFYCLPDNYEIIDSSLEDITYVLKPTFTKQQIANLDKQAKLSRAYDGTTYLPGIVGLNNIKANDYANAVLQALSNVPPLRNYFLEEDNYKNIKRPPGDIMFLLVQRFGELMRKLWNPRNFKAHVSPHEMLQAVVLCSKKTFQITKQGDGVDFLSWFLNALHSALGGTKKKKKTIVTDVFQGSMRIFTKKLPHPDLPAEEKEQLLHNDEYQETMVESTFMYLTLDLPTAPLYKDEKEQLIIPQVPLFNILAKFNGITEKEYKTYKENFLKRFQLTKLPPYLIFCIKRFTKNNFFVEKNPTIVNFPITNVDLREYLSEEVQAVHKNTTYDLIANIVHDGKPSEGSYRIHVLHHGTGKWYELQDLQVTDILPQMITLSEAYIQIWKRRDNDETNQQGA
Procedure: as §1

[5] = molecular target: T3, USP39; assay: Western blot of USP39 levels in VHL KO HeLa cells; type: cell-based; set-up: endogenous in cells; host or cells: VHL-KO HeLa
Procedure: as §1

[6] = molecular target: T3, USP39; assay: USP39 degradation across four cell lines (HeLa, HEK293T, LNCap, Kelly); type: cell-based; set-up: endogenous in cells; host or cells: HeLa-WT; HEK293T; LNCap; Kelly; conditions: for Concentration at which USP39 degradation was initiated: HeLa, HEK293T, LNCap, Kelly

Cc1ncsc1-c1ccc(CNC(=O)C2CC(O)CN2C(=O)C(NC(=O)CCOCCOCCOCCNC(=O)c2csc(Nc3ccc(Cl)cc3)n2)C(C)(C)C)cc1 (stereo not shown) [USP39_PROTAC_V1]
USP39 degradation in in-cell fluorescence assay [1]: robust degradation activity | FRET signal of ternary complex formation [2]: minimal signal | USP39 level in proteome-wide analysis ([3]; 5 nM and 50 nM, 24 h, over 6000 detectable proteins, p < 0.0001, log2FC < -4): most significantly downregulated protein | NDRG1 and ISG15 levels (off-target) ([3]; 5 nM and 50 nM, 24 h, proteomics, validated by WB): significant downregulation | USP5 and USP10 levels (homologues) ([3]; proteomic and immunoblot analyses): remained unaffected | USP39 degradation under co-treatment with proteasome inhibitor MG132 [4]: markedly suppressed USP39 degradation | USP39 degradation in VHL-KO HeLa cells [5]: significantly attenuated | Concentration above which USP39 levels recover (hook-effect) [6]: above 500 nM | Concentration at which USP39 degradation was initiated ([6]; 6 h of treatment): 5 nM | Concentration at which USP39 degradation was initiated ([6]; 24 h of treatment): 1 nM
